Assay results: patent publication US20140031787A1, “FEEDBACK-BASED DIURETIC OR NATRIURETIC MOLECULE ADMINISTRATION” (Medtronic, Inc., priority 2012, published 2014)

Key:
male dog = assay: NICOM study: cardiac data in anesthetized, mechanically ventilated dog; assay type: in vivo; conditions: phenylephrine followed by SNP; for cardiac output (CO): dobutamine incremental infusion doses, esmolol after dobutamine
Experimental: In one embodiment, the monitor comprises two electrodes (2601, 2602) which carry out two roles simultaneously. The first role is to deliver a continuous low-voltage alternating electrical current. The second role is to sample at a very fast rate the signal emanating from a patient. The signals are then analyzed to determine stroke volume (SV), heart rate (HR), cardiac output (CO), stroke volume variation (SVV) and other hemodynamic information. In one embodiment, the two electrodes 2601 and 2602 are placed on the surface of the chest of a human being 2604 to collect cardiac data. Although a human being 2604 is depicted, one of ordinary skill will understand that any mammal can be the subject. Further, one of ordinary skill in the art will appreciate that the two electrodes 2601 and 2602 may be placed on different locations of the body of the subject to obtain data.
A noninvasive cardiac output monitoring (NICOM) monitor was utilized to measure cardiac data from an anesthetized, mechanically ventilated, 54 lb, 42 inch (nose to base of tail) male dog. FIGS. 23-27 depict the cardiac data measured by the NICOM monitor.
The gap in data at 11:20 indicates electrocautery interference when the chest of the dog was opened. FIG. 24 depicts the data in response to sequential fluid boluses. An approximate 20% increase in CO was detected reflecting changes in both SV and HR. […] FIG. 26 depicts the cardiodepressant effect of the ultra-short beta-blocker esmolol given after dobutamine and recalibration. […] FIG. 27 depicts the response to increasing blood pressure with phenylephrine followed by decreasing blood pressure with sodium nitroprusside (SNP). Prior to this intervention, the dog chest had been opened and commercially available flow monitors had been implanted on the pulmonary artery (PA). Baseline PA flow data, which was measured by the implantable monitors, was 2.7 L/min. The PA flow data measured by the NICOM monitor was 2.812 L/min.

Dahl/SS rats = assay: Pharmacodynamic study of VD by SQ infusion in Dahl/SS rats on 4% salt diet; conditions: for blood pressure compared with 4% vehicle control group at week 3: week 3, p-value<0.05
Experimental: The pharmacodynamic effects of VD were investigated in a rat model. Forty male Dahl/SS rats were shipped to the animal facilities at PhysioGenix, Inc. (Milwaukee, Wis.). The rats were maintained on a low-salt diet and allowed to acclimate. After acclimation, animals had baseline parameters collected while on the low-salt diet. Baseline tail-cuff blood pressures and echocardiograms were measured. Baseline urine was collected for analysis of protein and albumin. Animals were then randomly assigned to one of 4 groups (10 animals per group):
1. Vehicle Control; low-salt diet, n=10 2. Vehicle Control; 4% salt diet, n=10 3. Vessel dilator, 100 ng/kg/min, 4% salt diet, n=10 4. Vessel dilator, 300 ng/kg/min, 4% salt diet, n=10
The vehicle control groups were infused with a citrate-mannitol-saline buffer (0.66 mg/mL citric acid, 6.43 mg/mL sodium citrate, 40 mg/mL mannitol, 9 mg/mL NaCl). The animals were on a Teklad 7034 (low-salt) diet or Dyets AIN-76A 4% salt diet, as indicated, throughout a 6 week course of the study and had free access to water.
Alzet® minipumps (Durect, Corp.) were surgically implanted on Days 1, 15, and 29 of the study to maintain continuous vehicle or drug dispensing at the desired dose for a total period of 6 weeks. Urine was collected at baseline, 2, 4 and 6 weeks after the initiation of the treatment to assess proteinuria and albuminuria. After six weeks of treatment, the animals were then euthanized.

[1] = test system: canine model high-rate paced (HRP); assay: Pharmacodynamic study of VD by subcutaneous infusion in high-rate paced canine heart failure model
Description: The pharmacodynamic effects of VD delivered by subcutaneous infusion were investigated in a canine model high-rate paced (HRP) to a heart rate of 240 bpm (ventricular pacing) over a period of 10 days to simulate HF. The canines were divided into a control group and an experimental group. The control group received a continuous subcutaneous infusion of the Tris buffer without VD over the course of the 10 day period. The experimental group received continuous subcutaneous infusion of VD dissolved in Tris buffer at a dosing rate of 100 ng/kg·min based upon the body weight of individual canines.
Seven days prior to the beginning of HRP (Day −7), all dogs were instrumented for ventricular pacing with an IPG (implantable pulse generator) including an RA (right atrium) and RV (right ventricle) lead, and a DSI (Digital Sciences International) device in the femoral artery for arterial blood pressure monitoring. Glomerular filtration rate (GFR) was measured by iohexol clearance on the day before the beginning of HRP (Day −1). On Day 0, high-rate pacing was initiated at a rate of 240 BPM (beats per minute) and maintained continuously over the course of a 10 day period (Days 0-10). After HRP was started on Day 0, urine, blood, and hemodynamic data was collected from conscious animals to serve as a baseline.
On Days 0-10, in combination with pacing, each animal received continuous subcutaneous (SQ) infusion of an agent (Tris buffer solution for control animals and vessel dilator in Tris buffer for experimental animals) delivered via external catheter and pump. SQ infusion was performed using Medtronic MiniMed® 407C pumps equipped with 3.0 mL reservoirs (#MMT-103A) and Medtronic Silhouette® combo infusion sets (#MMT373). GFR measurements were repeated on Day 9. On Day 10 (with HRP On), a pre-term monitor was performed for urine and hemodynamic data collection on conscious animals. Once the data was collected, HRP was turned off and the animals were euthanized.

COC(=O)CCc1ccc(OCC(O)CNC(C)C)cc1 (stereo not drawn) [esmolol]
cardiac output (CO) (male dog; NICOM monitor): marked decline

vessel dilator (EVVPPQVLSEPNEEAGAALSPLPEVPPWTGEVSPAQR; Vessel dilator; UniProt P01160 56-92, looked up) [VD]
average blood pressure compared with vehicle control group on 4% salt diet (Dahl/SS rats; high-dose VD 300 ng/kg/min SQ infusion): attenuated blood pressure | blood pressure compared with 4% vehicle control group at week 3 (Dahl/SS rats; high-dose VD 300 ng/kg/min): statistically significant decrease | decrease in blood pressure compared with 4% vehicle control group at week 5 (Dahl/SS rats; high-dose VD 300 ng/kg/min): not as statistically significant | average blood pressure compared with vehicle control group on 4% salt diet (Dahl/SS rats; low-dose VD 100 ng/kg/min SQ infusion): attenuated blood pressure | blood pressure compared with 4% vehicle control group at week 3 (Dahl/SS rats; low-dose VD 100 ng/kg/min): statistically significant decrease | decrease in blood pressure compared with 4% vehicle control group at week 5 (Dahl/SS rats; low-dose VD 100 ng/kg/min): not as statistically significant | difference in pulmonary capillary wedge pressure between control and experimental group on Day 10 ([1]; VD 100 ng/kg·min SQ infusion, two-way repeated measures ANOVA): does not appear to be statistically significant | extent of increase in pulmonary capillary wedge pressure Day 0 to Day 10 compared with control group ([1]; VD 100 ng/kg·min continuous SQ infusion): smaller than that observed in the control group | increase in right atrial pressure compared with control group ([1]; VD 100 ng/kg·min continuous SQ infusion, Day 10, p-value<0.05): significantly less than for the control group | mean right atrial pressure, change from Day 0 to Day 10 ([1]; VD 100 ng/kg·min continuous SQ infusion, HRP 240 bpm for 10 days): increased slightly

CC(CCc1ccc(O)cc1)NCCc1ccc(O)c(O)c1 (stereo not drawn) [dobutamine]
cardiac output (CO) (male dog; NICOM monitor): marked increase

CNC[C@H](O)c1cccc(O)c1 [phenylephrine]
cardiac output (CO) (male dog; NICOM monitor): reduced | heart rate (HR) (male dog; NICOM monitor): reflex slowing | blood pressure (male dog): elevated
